Publication PMC3541233 (PLoS ONE, 2013)

Target: T1, AmPDH (pyranose dehydrogenase, PDH) (Macropsalliota meleagris, UniProt Q3L245)
T1 construct: gene pdh1; for crystals deglycosylated with alpha-mannosidase (577 residues)
Test: anaerobic reduction of enzyme FAD, absorption spectra
Assay type: biochemical
Conditions: 20 µM oxidized enzyme, 20 µM substrate, 100 mM NaH2PO4 pH 7.5, 25 °C; C2 accessible

T1 sequence (Q3L245 26-602): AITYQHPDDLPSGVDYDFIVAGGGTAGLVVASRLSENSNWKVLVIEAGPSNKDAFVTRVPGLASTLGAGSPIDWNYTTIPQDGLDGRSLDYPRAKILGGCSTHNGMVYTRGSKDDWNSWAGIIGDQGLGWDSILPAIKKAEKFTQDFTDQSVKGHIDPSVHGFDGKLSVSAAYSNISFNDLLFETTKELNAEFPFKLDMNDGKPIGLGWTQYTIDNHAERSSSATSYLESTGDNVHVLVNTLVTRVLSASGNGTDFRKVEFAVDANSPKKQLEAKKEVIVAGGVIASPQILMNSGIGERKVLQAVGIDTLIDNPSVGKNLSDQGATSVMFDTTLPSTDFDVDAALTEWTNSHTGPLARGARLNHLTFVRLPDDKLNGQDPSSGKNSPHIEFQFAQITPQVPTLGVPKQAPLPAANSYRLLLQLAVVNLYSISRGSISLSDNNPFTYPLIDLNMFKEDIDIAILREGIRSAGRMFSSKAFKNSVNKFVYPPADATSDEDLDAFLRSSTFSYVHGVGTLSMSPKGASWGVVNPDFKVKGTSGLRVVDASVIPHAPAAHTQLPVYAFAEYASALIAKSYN

Structure (SMILES): OC[C@H]1OC(O)[C@H](O)[C@@H](F)[C@@H]1O (stereo partly shown)
- anaerobic reduction of enzyme FAD, absorption spectra: showing that AmPDH was rapidly reduced, presumably by a hydride moiety at glucose C2
